From US10954269B2, “Anti-inflammatory tripeptides” (Dr. August Wolff Gmbh & Co. KG Arzneimittel, priority 2013, dated 2021)

How the values were obtained:
Settings in all cases: substance 10^−9M
[1] = test system: human keratinocyte cell line (HaCaT); assay: Cytokine secretion on protein level in activated human keratinocyte cell line HaCaT (13-plex FACS / Luminex, supernatant); type: cell-based
Outline: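 Cytokine protein in supernatant is read by multiplex FACS or Luminex. Tripeptide-treated HaCaT cells or blood-derived human T-cells are stimulated beforehand with PMA/Ionomycin or IFN-γ. The most relevant analytes are IL-1, IL-2, IL-6, IL-12p70, IL-17, IFN-γ and TNF-α, sampled 48 h and 72 h after stimulation.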

primary murine T-cells = assay: Cytokine secretion on protein level in activated primary murine T-cells (13-plex FACS / Luminex, supernatant); type: cell-based, C57BL/6 mice
Outline: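 T-cells from secondary lymphatic organs of naïve C57BL/6 mice, stimulated with PMA/Ionomycin or IFN-γ; supernatant cytokines measured by 13-plex FACS 48 h and 72 h after stimulation. In another run, PMA/Ionomycin-stimulated cells received compounds at 10^−7, 10^−9 and 10^−11 M, with IFN-γ, IL-17 and IL-10 measured by Luminex.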

primary human T-cells = assay: Cytokine secretion on protein level in activated primary human T-cells (13-plex FACS / Luminex, supernatant); type: cell-based
Outline: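 Stimulus: PMA/Ionomycin or IFN-γ, 48 h; cells: HaCaT or human peripheral-blood T-cells; tripeptide treatment; readout: supernatant cytokines via 13-plex FACS or Luminex, 48–72 h post-stimulation.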

[2] = HaCaT stimulated with PMA/Ionomycin
[3] = primary murine T-cells stimulated with IFN-γ
[4] = primary murine T-cells stimulated with PBS
[5] = primary murine T-cells stimulated with PMA/Ionomycin
[6] = primary human T-cells stimulated with IFN-γ
[7] = primary human T-cells stimulated with PBS
[8] = primary human T-cells stimulated with PMA/Ionomycin

N^α,N^α-dimethyl-(L)-Lys-(D)-Pro-N^α-methyl-(L)-Thr-NH2 [Example 4]
IL-1 cytokine concentration ([1]; HaCaT stimulated with IFN-γ): 0 pg/mL
IL-2 cytokine concentration ([1]; HaCaT stimulated with IFN-γ): 0 pg/mL
IL-4 cytokine concentration ([1]; HaCaT stimulated with IFN-γ): 0 pg/mL
IL-5 cytokine concentration ([1]; HaCaT stimulated with IFN-γ): 0 pg/mL
IL-6 cytokine concentration ([1]; HaCaT stimulated with IFN-γ): 224.07 pg/mL
IL-9 cytokine concentration ([1]; HaCaT stimulated with IFN-γ): 0 pg/mL
IL-10 cytokine concentration ([1]; HaCaT stimulated with IFN-γ): 0 pg/mL
IL-12p70 cytokine concentration ([1]; HaCaT stimulated with IFN-γ): 0 pg/mL
IL-13 cytokine concentration ([1]; HaCaT stimulated with IFN-γ): 0 pg/mL
IL-17 cytokine concentration ([1]; HaCaT stimulated with IFN-γ): 13.16 pg/mL
IL-22 cytokine concentration ([1]; HaCaT stimulated with IFN-γ): 0 pg/mL
TNF-α cytokine concentration ([1]; HaCaT stimulated with IFN-γ): 0 pg/mL
IFN-γ cytokine concentration ([1]; HaCaT stimulated with PBS): 0 pg/mL
IL-1 cytokine concentration ([1]; HaCaT stimulated with PBS): 0 pg/mL
IL-2 cytokine concentration ([1]; HaCaT stimulated with PBS): 18.85 pg/mL
IL-4 cytokine concentration ([1]; HaCaT stimulated with PBS): 109.04 pg/mL
IL-5 cytokine concentration ([1]; HaCaT stimulated with PBS): 0 pg/mL
IL-6 cytokine concentration ([1]; HaCaT stimulated with PBS): 80.55 pg/mL
IL-9 cytokine concentration ([1]; HaCaT stimulated with PBS): 2.87 pg/mL
IL-10 cytokine concentration ([1]; HaCaT stimulated with PBS): 61.87 pg/mL
IL-12p70 cytokine concentration ([1]; HaCaT stimulated with PBS): 0 pg/mL
IL-13 cytokine concentration ([1]; HaCaT stimulated with PBS): 123.68 pg/mL
IL-17 cytokine concentration ([1]; HaCaT stimulated with PBS): 12.85 pg/mL
IL-22 cytokine concentration ([1]; HaCaT stimulated with PBS): 0 pg/mL
TNF-α cytokine concentration ([1]; HaCaT stimulated with PBS): 0 pg/mL
IFN-γ cytokine concentration [1, 2]: 39.23 pg/mL
IL-1 cytokine concentration [1, 2]: 0 pg/mL
IL-2 cytokine concentration [1, 2]: 0 pg/mL
IL-4 cytokine concentration [1, 2]: 0 pg/mL
IL-5 cytokine concentration [1, 2]: 16.77 pg/mL
IL-6 cytokine concentration [1, 2]: 225.53 pg/mL
IL-9 cytokine concentration [1, 2]: 0 pg/mL
IL-10 cytokine concentration [1, 2]: 97.56 pg/mL
IL-12p70 cytokine concentration [1, 2]: 0 pg/mL
IL-13 cytokine concentration [1, 2]: 0 pg/mL
IL-17 cytokine concentration [1, 2]: 28.83 pg/mL
IL-22 cytokine concentration [1, 2]: 0 pg/mL
TNF-α cytokine concentration [1, 2]: 3.93 pg/mL
IL-1 cytokine concentration (primary murine T-cells; [3]): 100.01 pg/mL
IL-2 cytokine concentration (primary murine T-cells; [3]): 206.76 pg/mL
IL-4 cytokine concentration (primary murine T-cells; [3]): 0 pg/mL
IL-5 cytokine concentration (primary murine T-cells; [3]): 486.86 pg/mL
IL-6 cytokine concentration (primary murine T-cells; [3]): 235.86 pg/mL
IL-10 cytokine concentration (primary murine T-cells; [3]): 1250.21 pg/mL
IL-13 cytokine concentration (primary murine T-cells; [3]): 0 pg/mL
IL-17 cytokine concentration (primary murine T-cells; [3]): 92.71 pg/mL
IL-21 cytokine concentration (primary murine T-cells; [3]): 814.33 pg/mL
IL-22 cytokine concentration (primary murine T-cells; [3]): 114.68 pg/mL
IL-27 cytokine concentration (primary murine T-cells; [3]): 138.81 pg/mL
TNF-α cytokine concentration (primary murine T-cells; [3]): 47.36 pg/mL
IFN-γ cytokine concentration (primary murine T-cells; [4]): 2456.98 pg/mL
IL-1 cytokine concentration (primary murine T-cells; [4]): 78.5 pg/mL
IL-2 cytokine concentration (primary murine T-cells; [4]): 147.3 pg/mL
IL-4 cytokine concentration (primary murine T-cells; [4]): 119.19 pg/mL
IL-5 cytokine concentration (primary murine T-cells; [4]): 377.16 pg/mL
IL-6 cytokine concentration (primary murine T-cells; [4]): 189.26 pg/mL
IL-10 cytokine concentration (primary murine T-cells; [4]): 1006.65 pg/mL
IL-13 cytokine concentration (primary murine T-cells; [4]): 0 pg/mL
IL-17 cytokine concentration (primary murine T-cells; [4]): 0 pg/mL
IL-21 cytokine concentration (primary murine T-cells; [4]): 330.42 pg/mL
IL-22 cytokine concentration (primary murine T-cells; [4]): 84.16 pg/mL
IL-27 cytokine concentration (primary murine T-cells; [4]): 329.85 pg/mL
TNF-α cytokine concentration (primary murine T-cells; [4]): 18.91 pg/mL
IFN-γ cytokine concentration (primary murine T-cells; [5]): 3234.33 pg/mL
IL-1 cytokine concentration (primary murine T-cells; [5]): 196.76 pg/mL
IL-2 cytokine concentration (primary murine T-cells; [5]): 292.52 pg/mL
IL-4 cytokine concentration (primary murine T-cells; [5]): 123.15 pg/mL
IL-5 cytokine concentration (primary murine T-cells; [5]): 465.44 pg/mL
IL-6 cytokine concentration (primary murine T-cells; [5]): 245.96 pg/mL
IL-10 cytokine concentration (primary murine T-cells; [5]): 1383.24 pg/mL
IL-13 cytokine concentration (primary murine T-cells; [5]): 0 pg/mL
IL-17 cytokine concentration (primary murine T-cells; [5]): 391.98 pg/mL
IL-21 cytokine concentration (primary murine T-cells; [5]): 987.02 pg/mL
IL-22 cytokine concentration (primary murine T-cells; [5]): 48.93 pg/mL
IL-27 cytokine concentration (primary murine T-cells; [5]): 80.01 pg/mL
TNF-α cytokine concentration (primary murine T-cells; [5]): 62.85 pg/mL
IL-1 cytokine concentration (primary human T-cells; [6]): 366.09 pg/mL
IL-2 cytokine concentration (primary human T-cells; [6]): 326.11 pg/mL
IL-4 cytokine concentration (primary human T-cells; [6]): 176.6 pg/mL
IL-5 cytokine concentration (primary human T-cells; [6]): 27.34 pg/mL
IL-6 cytokine concentration (primary human T-cells; [6]): 180.43 pg/mL
IL-9 cytokine concentration (primary human T-cells; [6]): 10.84 pg/mL
IL-10 cytokine concentration (primary human T-cells; [6]): 75.72 pg/mL
IL-12p70 cytokine concentration (primary human T-cells; [6]): 0 pg/mL
IL-13 cytokine concentration (primary human T-cells; [6]): 212.64 pg/mL
IL-17 cytokine concentration (primary human T-cells; [6]): 162.73 pg/mL
IL-22 cytokine concentration (primary human T-cells; [6]): 0 pg/mL
TNF-α cytokine concentration (primary human T-cells; [6]): 103.24 pg/mL
IL-1 cytokine concentration (primary human T-cells; [7]): 122.89 pg/mL
IL-2 cytokine concentration (primary human T-cells; [7]): 0 pg/mL
IL-4 cytokine concentration (primary human T-cells; [7]): 60.49 pg/mL
IL-5 cytokine concentration (primary human T-cells; [7]): 0 pg/mL
IL-6 cytokine concentration (primary human T-cells; [7]): 226.2 pg/mL
IL-9 cytokine concentration (primary human T-cells; [7]): 3.71 pg/mL
IL-10 cytokine concentration (primary human T-cells; [7]): 0 pg/mL
IL-12p70 cytokine concentration (primary human T-cells; [7]): 0 pg/mL
IL-13 cytokine concentration (primary human T-cells; [7]): 0 pg/mL
IL-17 cytokine concentration (primary human T-cells; [7]): 0 pg/mL
IL-22 cytokine concentration (primary human T-cells; [7]): 0 pg/mL
INF-α cytokine concentration (primary human T-cells; [7]): 0 pg/mL
TNF-α cytokine concentration (primary human T-cells; [7]): 0 pg/mL
IL-1 cytokine concentration (primary human T-cells; [8]): 689.99 pg/mL
IL-2 cytokine concentration (primary human T-cells; [8]): 1227.93 pg/mL
IL-4 cytokine concentration (primary human T-cells; [8]): 239.37 pg/mL
IL-5 cytokine concentration (primary human T-cells; [8]): 473.23 pg/mL
IL-6 cytokine concentration (primary human T-cells; [8]): 1280 pg/mL
IL-9 cytokine concentration (primary human T-cells; [8]): 239.43 pg/mL
IL-10 cytokine concentration (primary human T-cells; [8]): 417.95 pg/mL
IL-12p70 cytokine concentration (primary human T-cells; [8]): 0 pg/mL
IL-13 cytokine concentration (primary human T-cells; [8]): 1081.09 pg/mL
IL-17 cytokine concentration (primary human T-cells; [8]): 1356.78 pg/mL
IL-22 cytokine concentration (primary human T-cells; [8]): 0 pg/mL
INF-α cytokine concentration (primary human T-cells; [8]): 5384.11 pg/mL
TNF-α cytokine concentration (primary human T-cells; [8]): 4112.99 pg/mL
